Tests used:
[1] = target: Dual specificity mitogen-activated protein kinase kinase 1 (Homo sapiens, UniProt Q02750); assay: Selectivity interaction (KinomeScan (DiscoverX)) EUB0000229b MAP2K1; details: at 10 µM
[2] = target: CDK1/Cyclin A (Homo sapiens) (UniProt P06493+P20248); assay: Selectivity interaction (LanthaScreen Eu Kinase Binding Assay) EUB0001632a CDK1; assay type: protein-complex assay; details: at 10 µM
[3] = target: T1, Mitogen-activated protein kinase 12 (Homo sapiens) (UniProt P53778); assay: Selectivity interaction (Kinase panel (Z-LYTE Assay)) EUB0001632a MAPK12; details: at 10 µM
T1 sequence (whole entry): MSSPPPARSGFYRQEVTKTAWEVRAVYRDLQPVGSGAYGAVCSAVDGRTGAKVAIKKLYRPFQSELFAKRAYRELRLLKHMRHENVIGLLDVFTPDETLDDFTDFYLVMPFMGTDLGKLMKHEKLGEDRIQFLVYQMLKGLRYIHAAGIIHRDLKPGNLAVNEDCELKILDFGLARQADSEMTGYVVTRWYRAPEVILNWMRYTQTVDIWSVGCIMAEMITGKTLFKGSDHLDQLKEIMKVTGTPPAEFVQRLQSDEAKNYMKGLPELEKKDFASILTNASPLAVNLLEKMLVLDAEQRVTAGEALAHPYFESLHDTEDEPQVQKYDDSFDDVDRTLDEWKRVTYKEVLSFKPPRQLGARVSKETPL

[4] = target: 5-hydroxytryptamine receptor 1B (Homo sapiens) (UniProt P28222); assay: Selectivity interaction (Safety Panel 44tm (Eurofins)) EUB0000162b HTR1B; details: at 10 µM
[5] = target: Type-1 angiotensin II receptor (Homo sapiens, UniProt P30556); assay: Selectivity interaction (Angiotensin II AT1 receptor binding assay, human recombinant ) EUB0000877a AGTR1
[6] = target: T2, TGF-beta receptor type-1 (Homo sapiens) (UniProt P36897); assay: Selectivity interaction (ProQinase) EUB0000171b TGFBR1
T2 sequence (whole entry): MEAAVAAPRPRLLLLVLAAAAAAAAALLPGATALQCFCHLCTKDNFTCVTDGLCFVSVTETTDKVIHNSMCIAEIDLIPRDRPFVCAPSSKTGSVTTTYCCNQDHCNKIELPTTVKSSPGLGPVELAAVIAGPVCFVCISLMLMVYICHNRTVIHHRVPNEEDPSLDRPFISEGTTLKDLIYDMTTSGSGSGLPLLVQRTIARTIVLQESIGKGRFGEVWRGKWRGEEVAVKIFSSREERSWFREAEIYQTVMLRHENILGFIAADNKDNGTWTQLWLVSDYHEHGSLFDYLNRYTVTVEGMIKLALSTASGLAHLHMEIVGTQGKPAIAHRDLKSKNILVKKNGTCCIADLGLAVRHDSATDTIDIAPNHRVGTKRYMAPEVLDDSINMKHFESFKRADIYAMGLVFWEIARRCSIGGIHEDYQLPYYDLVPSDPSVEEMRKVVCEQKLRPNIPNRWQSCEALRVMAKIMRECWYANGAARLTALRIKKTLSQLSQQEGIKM

[7] = target: T3, Mitogen-activated protein kinase kinase kinase 19 (Homo sapiens) (UniProt Q56UN5); assay: Selectivity interaction (KinomeScan (DiscoverX)) EUB0000607a MAP3K19; details: at 10 µM
T3 sequence (whole entry): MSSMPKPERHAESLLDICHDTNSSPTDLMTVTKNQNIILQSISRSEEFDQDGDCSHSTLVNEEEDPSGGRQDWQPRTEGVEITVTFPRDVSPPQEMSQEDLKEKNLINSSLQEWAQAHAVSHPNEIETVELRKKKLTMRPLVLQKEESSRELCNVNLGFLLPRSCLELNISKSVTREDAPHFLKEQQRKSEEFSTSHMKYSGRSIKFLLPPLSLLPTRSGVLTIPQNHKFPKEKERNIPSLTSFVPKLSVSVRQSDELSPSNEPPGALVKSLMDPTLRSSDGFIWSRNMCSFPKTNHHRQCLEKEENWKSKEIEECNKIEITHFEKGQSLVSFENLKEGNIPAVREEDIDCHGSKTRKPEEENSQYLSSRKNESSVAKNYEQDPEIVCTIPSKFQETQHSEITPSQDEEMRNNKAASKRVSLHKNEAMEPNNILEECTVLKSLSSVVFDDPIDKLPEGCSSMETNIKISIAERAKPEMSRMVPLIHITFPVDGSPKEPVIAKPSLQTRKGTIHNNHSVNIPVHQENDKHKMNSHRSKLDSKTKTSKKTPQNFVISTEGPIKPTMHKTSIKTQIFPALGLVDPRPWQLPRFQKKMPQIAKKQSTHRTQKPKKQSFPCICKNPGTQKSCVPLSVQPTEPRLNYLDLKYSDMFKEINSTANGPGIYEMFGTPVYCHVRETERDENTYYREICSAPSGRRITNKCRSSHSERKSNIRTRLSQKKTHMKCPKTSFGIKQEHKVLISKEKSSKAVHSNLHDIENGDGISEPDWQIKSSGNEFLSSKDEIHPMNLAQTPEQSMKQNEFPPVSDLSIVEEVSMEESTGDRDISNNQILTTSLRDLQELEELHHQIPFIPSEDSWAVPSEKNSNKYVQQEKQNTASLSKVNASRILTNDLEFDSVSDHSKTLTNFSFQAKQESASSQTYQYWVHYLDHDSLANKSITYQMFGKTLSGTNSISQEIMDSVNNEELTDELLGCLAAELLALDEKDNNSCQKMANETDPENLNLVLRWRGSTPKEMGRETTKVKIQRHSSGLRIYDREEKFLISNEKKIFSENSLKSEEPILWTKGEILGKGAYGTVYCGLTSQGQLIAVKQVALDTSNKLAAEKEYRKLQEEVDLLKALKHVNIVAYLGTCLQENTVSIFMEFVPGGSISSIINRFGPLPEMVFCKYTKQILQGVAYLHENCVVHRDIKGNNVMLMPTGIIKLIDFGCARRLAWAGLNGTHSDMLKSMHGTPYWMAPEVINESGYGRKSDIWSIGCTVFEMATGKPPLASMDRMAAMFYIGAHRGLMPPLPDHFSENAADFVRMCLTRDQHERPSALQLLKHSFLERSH

[8] = target: Cyclin-dependent kinase 1/cyclin B (Homo sapiens) (UniProt P06493+P14635+Q8WWL7+O95067); assay: Selectivity interaction (Kinase panel (Invitrogen)) EUB0000639a CDK1; assay type: protein-complex assay; details: at 200 nM
[9] = target: Calcium/calmodulin-dependent protein kinase kinase 1 (Homo sapiens) (UniProt Q8N5S9); assay: Selectivity interaction (KinomeScan (DiscoverX)) EUB0000655a CAMKK1; details: at 10 µM
Chain of Calcium/calmodulin-dependent protein kinase kinase 1 (Homo sapiens) (Q8N5S9 whole entry, looked up): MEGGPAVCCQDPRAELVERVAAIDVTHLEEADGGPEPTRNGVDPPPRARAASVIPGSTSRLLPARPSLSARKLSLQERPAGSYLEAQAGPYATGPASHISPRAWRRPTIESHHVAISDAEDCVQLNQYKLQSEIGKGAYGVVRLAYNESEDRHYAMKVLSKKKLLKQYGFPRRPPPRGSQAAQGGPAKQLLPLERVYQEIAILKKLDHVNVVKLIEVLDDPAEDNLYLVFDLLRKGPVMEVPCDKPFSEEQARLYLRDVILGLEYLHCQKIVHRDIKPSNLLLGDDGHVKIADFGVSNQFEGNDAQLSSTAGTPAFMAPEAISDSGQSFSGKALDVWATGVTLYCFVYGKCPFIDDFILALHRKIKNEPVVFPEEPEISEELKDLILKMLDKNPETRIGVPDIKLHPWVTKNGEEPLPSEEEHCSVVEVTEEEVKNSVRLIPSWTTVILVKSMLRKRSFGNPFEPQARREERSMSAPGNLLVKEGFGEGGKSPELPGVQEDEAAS

Chain of Type-1 angiotensin II receptor (P30556 whole entry): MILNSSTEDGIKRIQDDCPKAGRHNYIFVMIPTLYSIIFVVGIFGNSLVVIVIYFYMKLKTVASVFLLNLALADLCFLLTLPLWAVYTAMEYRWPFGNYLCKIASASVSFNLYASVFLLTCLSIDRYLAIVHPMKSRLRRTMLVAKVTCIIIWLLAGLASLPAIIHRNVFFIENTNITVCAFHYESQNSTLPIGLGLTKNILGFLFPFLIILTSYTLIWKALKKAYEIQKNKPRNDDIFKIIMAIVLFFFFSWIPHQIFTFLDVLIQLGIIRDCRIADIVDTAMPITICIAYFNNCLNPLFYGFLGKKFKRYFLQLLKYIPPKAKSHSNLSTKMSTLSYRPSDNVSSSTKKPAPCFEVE
Chain of CDK1/Cyclin A (Homo sapiens) (P06493 whole entry, looked up): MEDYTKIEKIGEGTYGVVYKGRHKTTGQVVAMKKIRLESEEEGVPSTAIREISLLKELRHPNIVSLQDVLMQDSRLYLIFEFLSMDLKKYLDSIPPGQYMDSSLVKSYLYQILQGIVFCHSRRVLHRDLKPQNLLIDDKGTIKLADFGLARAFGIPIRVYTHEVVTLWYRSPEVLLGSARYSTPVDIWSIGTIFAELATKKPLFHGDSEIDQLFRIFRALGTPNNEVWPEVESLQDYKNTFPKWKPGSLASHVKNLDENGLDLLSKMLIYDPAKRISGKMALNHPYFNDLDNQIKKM
Chain of CDK1/Cyclin A (Homo sapiens) (P20248 whole entry, looked up): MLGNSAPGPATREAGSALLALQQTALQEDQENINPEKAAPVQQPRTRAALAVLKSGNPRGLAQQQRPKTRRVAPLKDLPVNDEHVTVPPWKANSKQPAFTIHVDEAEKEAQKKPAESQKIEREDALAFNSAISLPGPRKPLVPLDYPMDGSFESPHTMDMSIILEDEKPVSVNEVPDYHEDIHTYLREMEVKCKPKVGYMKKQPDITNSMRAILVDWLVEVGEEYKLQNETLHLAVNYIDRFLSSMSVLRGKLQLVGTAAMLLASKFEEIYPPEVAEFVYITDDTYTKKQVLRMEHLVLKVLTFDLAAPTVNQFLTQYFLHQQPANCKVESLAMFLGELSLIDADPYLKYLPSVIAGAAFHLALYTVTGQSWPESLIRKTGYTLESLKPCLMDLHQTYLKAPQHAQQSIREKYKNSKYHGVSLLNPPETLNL
Chain of 5-hydroxytryptamine receptor 1B (Homo sapiens) (P28222 whole entry): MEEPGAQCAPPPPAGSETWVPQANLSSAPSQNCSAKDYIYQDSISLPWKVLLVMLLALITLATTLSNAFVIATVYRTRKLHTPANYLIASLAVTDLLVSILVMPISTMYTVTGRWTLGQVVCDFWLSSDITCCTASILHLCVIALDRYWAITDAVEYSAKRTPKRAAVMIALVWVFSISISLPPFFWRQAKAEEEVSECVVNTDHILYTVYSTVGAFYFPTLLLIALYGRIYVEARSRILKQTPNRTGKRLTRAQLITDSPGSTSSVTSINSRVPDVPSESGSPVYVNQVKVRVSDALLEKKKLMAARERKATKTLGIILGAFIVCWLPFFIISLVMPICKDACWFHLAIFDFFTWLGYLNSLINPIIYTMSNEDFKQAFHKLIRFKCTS
Chain of Dual specificity mitogen-activated protein kinase kinase 1 (Q02750 whole entry): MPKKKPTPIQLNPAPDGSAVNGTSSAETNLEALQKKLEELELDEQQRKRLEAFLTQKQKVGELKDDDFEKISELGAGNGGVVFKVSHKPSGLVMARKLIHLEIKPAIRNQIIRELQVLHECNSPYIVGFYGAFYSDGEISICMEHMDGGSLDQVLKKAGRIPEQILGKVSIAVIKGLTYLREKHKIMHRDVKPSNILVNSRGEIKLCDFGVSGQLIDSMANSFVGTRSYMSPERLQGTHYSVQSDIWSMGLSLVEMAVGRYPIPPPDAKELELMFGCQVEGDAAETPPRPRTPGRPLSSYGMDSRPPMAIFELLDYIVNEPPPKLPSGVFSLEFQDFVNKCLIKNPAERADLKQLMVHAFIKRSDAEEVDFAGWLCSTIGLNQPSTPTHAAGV

## COc1cc(N(C)c2ccnc3ccc(C(F)(F)F)cc23)cc(OC)c1OC
[1]
  % binding: 68%

## Cn1cc(-n2cnc3c(NCc4nc5cc(Cl)c(Cl)cc5[nH]4)nc(N4CCOCC4)nc32)cn1
[2]
  % of inhibition: -246%
[3]
  % of control: 1.47%

## CN(C)C(=O)Cn1cc(-c2ccc(-c3cncc4ccccc34)cc2)cn1
[4]
  % of control: 53%

## CCC(=O)N1CC[C@H](Nc2ncnc3c2CN(c2cnc(OC)c(C(F)(F)F)c2)CC3)C1 [LENIOLISIB]
[5]
  IC50: > 30 µM

## C=CC(=O)Nc1cccc(C(=O)Nc2ccc(Nc3cc(-c4[nH]c(SC)nc4C)ccn3)cc2)c1
[6]; at 1 µM
  % of control: 106%
[6]; at 5 µM
  % of control: 92%

## CNC(=O)Nc1ccc(-c2nc(N3CC4CCC(C3)O4)c3cnn(C4CCC5(CC4)OCCO5)c3n2)cc1
[7]
  % of control: 100%

## CC[C@@H]1[C@H](F)C(=O)N[C@@H]1COc1nccc2cc(C(N)=O)c(OC)cc12 [ZIMLOVISERTIB]
[8]
  % of inhibition: 11.5%

## CN(C)CCOc1ccc(-c2nc(-c3ccncc3)c(-c3ccc4c(c3)CC/C4=N\O)[nH]2)cc1
[9]
  % of control: 99%

Reference: ChEMBL document CHEMBL5465560, “Selectivity Literature for EUbOPEN Chemogenomic Library” (2024)
